Assay [1] concerns the target T1, equine BChE (eqBChE) (Equus caballus, UniProt P81908).
T1 construct: purchased Sigma-Aldrich (Milan, Italy)
As to the kind of experiment: Determination of IC50 vs. eqBChE. Format: biochemical. The settings on record: IC50 ± SE, 100 µM acetylthiocholine, compound 18 after incubation for 1 h. Here is the method: The recorded data were analyzed with the enzyme kinetic module of SigmaPlot (Systat Software, Palo alto, CA, USA). Each measurement was replicated three times and the IC50 value obtained was confirmed by repeating the experiment twice. […] The IC50 plot of the tested compound is reported in the Supplementary Materials (Figure S3).
The recorded data were analyzed by the enzyme kinetic module of SigmaPlot, plotting the percentages of inhibition as a function of the different concentrations of inhibitor, expressed in logarithmic scale, in order to obtain the sigmoid graph, from which it was possible to determinate the IC50 value of the tested compound. The IC50 value was confirmed by repeating the experiment twice.

In assay [2] the target is T1, equine BChE (eqBChE). The assay is described as follows: Reversibility of inhibition vs. eqBChE (ultrafiltration and washing). Format: biochemical. Conditions: for inhibition at 5.4 µM: compound 18 5.4 µM, eqBChE 1.25 U. As for the experimental part: Moreover, it was evaluated whether the inhibition mechanism of carbamate 18 towards eqBChE is reversible, irreversible or pseudo-irreversible. For this purpose, the percentages of inhibition were determined both after one hour of the incubation of compound 18 (5.4 µM) with eqBChE (1.25 U), both following the removal of the inhibitor and the washing of the enzyme, carried out through ultrafiltration devices for the concentration of biological samples [35, 36]. To validate the method, the same study was performed with carbaryl (54 µM), a known carbamoylating cholinesterase inhibitor.
After the incubation phase, the solution containing the inhibitor not bound to the enzyme was removed by centrifugation, retaining eqBChE on the membrane of the ultrafiltration devices. Then the enzyme was washed with phosphate buffer, to remove the bound inhibitor and to restore the enzyme activity.
Three solutions were prepared in 0.1 M phosphate buffer (pH = 7.4), containing eqBChE (0.50 UmL^−1), DTNB (0.3 mM) and acetylthiocholine (10 mM), respectively. A solution of compound 18 in DMSO (2.7 mM) was prepared. Then six Vivaspin® were used: • three were prepared with 2.5 mL of eqBChE solution (0.50 UmL^−1) and 5 µL of inhibitor solution; • three were prepared with 2.5 mL of eqBChE solution (0.50 UmL^−1) and 5 µL of DMSO.
The Vivaspin® thus prepared were incubated for 1 h at 25 °C. After this time the percentage of inhibition was determined following the Ellman method. The blank was recorded by taking 500 µL from the Vivaspin® and diluting them in the cuvette in 2.5 mL of DTNB solution (0.3 mM). The reaction was activated by adding 30 μL of acetylthiocholine solution (10 mM), so as to obtain a final concentration of 100 µM in the cuvette. The absorbance variation was measured between 0.5 and 1.5 min at 412 nm, repeating the measurement for each of the six Vivaspin®.
After this procedure the first centrifugation of the Vivaspin® was carried out for 60 min at 4000 rpm and subsequently the solutions that crossed the membrane and settled in the filtrate tube were removed. In this way the solutions present in the concentrator body were concentrated up to 100 µL. To these solutions 1 mL of 0.1 M phosphate buffer (pH = 7.4) was added and the second centrifugation was carried out for 30 min at 4000 rpm. The solutions present in the concentrator body were concentrated up to 200 µL. The second washing was carried out, adding 1 mL of buffer and centrifuging for 30 min at 4000 rpm. The solutions present in the concentrator body were concentrated up to 250 µL. A third wash was carried out adding 1 mL of buffer and centrifuging for 50 min at 4000 rpm. The solutions present in the concentrator body were concentrated up to 150 µL. At this point, to recover the concentrated solution, the filtrate tube was removed, the concentrator body was turned upside down and inserted inside the concentrate recovery cap. The Vivaspin® was centrifuged for 10 min at 4000 rpm. After this time the recovered solution was taken up with 3 mL of DTNB solution (0.3 mM) and transferred into the cuvette: blank was recorded. The reaction was activated when 30 µL of substrate solution (10 mM) were added so as to have a final concentration of 100 µM in the cuvette. The absorbance variation between 0.5 and 1.5 min was measured at 412 nm, repeating the measurement for each of the recovered solutions.
As a positive control carbaryl was used, for which the same procedure was followed, using a 27 mM carbaryl stock solution in DMSO.

Experimental findings from paper PMC9227096, “Design, Synthesis, and In Vitro, In Silico and In Cellulo Evaluation of New Pyrimidine and Pyridine Amide and Carbamate Derivatives as Multi-Functional Cholinesterase Inhibitors” (Pharmaceuticals, 2022) are described below.

The term IC50 denotes the midpoint of a concentration-inhibition curve. Low readings indicate greater potency in that assay, high ones weaker potency in that assay. By inhibition is commonly meant the share of the control response that was lost under treatment.

Where two headings read alike, the source gives them in different places.

T1 sequence (P81908 whole entry): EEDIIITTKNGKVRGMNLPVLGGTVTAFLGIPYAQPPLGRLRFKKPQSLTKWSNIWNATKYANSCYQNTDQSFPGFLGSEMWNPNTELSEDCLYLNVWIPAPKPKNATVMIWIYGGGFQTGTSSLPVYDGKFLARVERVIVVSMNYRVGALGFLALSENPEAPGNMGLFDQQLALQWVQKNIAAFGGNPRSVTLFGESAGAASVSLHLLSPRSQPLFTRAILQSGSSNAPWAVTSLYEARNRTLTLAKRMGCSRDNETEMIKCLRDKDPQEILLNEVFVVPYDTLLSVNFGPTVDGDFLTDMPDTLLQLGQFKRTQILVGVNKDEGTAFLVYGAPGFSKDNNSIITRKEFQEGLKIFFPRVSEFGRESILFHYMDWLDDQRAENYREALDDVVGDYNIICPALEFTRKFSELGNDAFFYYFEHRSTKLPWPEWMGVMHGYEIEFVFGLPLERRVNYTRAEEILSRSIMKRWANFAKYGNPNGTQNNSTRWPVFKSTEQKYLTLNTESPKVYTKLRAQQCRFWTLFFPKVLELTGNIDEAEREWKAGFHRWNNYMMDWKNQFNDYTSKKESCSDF

Consider `O=C(NCCCCCCNc1ccccn1)Oc1ccccc1` [Compound 18, Phenyl (6-(pyridin-2-ylamino)hexyl)carbamate], for which, on equine BChE (eqBChE) [1], the midpoint of inhibition, the IC50, lay at 454 nM. Besides, the inhibition at 5.4 µM on equine BChE (eqBChE) [2] (after ultrafiltration and washing with phosphate buffer, read-out: percentage of inhibition of eqBChE after removal of inhibitor and washing of the enzyme) was 56.7%; on equine BChE (eqBChE) [2] (before washing, read-out: percentage of inhibition of eqBChE after one hour of incubation), 89.7%. Moreover, the “inhibition mechanism towards eqBChE (reversible, irreversible or pseudo-irreversible)” value against equine BChE (eqBChE) [2] (from restoration of enzymatic activity after washing) is reported as “pseudo-irreversible”.
